Data on 7 compounds can be found in patent US20260209152A1, “Substituted Hydroxystilbene Compounds and Derivatives, Synthesis and Uses Thereof” (Kynan Duke IP, LLC, priority 2019, published 2026).

Read-outs that look alike come from different tables or passages of the source.

Assay [1] relates to IL-8 release from IL-17A and TNFα-induced primary human keratinocytes. The assay can be described thus: Keratinocyte IL-8 release (assay number 1250). It is filed as cell-based. The settings on record: for EC50 / Emax: Homo sapiens, Keratinocyte; for Max Eff.: IL-8 (1250): highest effect as percentage of control maximum effect; for Emax: read-out: maximum efficacy, IL-8 release. How it is done:
Inhibition of IL-8 release from IL-17A and TNFα-induced primary human keratinocytes LEO Pharma Open Innovation assay number 1250 openinnovation.leo-pharma.com
The inflammatory skin disease psoriasis is characterized by cytokines IL-17A and TNFα. In the present assay, primary human keratinocytes are stimulated with a mixture of these cytokines, and the release of IL-8 (also called CXCL8) is measured in the culture supernatant by proximity homogenous time-resolved fluorescence (HTRF).
• Detach the cells as described above. • Resuspend pellet in 10 ml EpiLife Medium with HKGS Kit but without hydrocortisone • Filter the cells though a 37 µm strainer. • Count cells using a cell counter. • Seed Human Epidermal Keratinocytes, adult (HEKa) cells in 384-well view plates 3500 c/w/40 μL. Use cell media with supplement but without hydrocortisone as assay medium. • Place the plates with lids on in a humidity chamber with lid (24.5×24.5 cm box added H2O in the bottom). • Incubate plates over night at 37° C., 5% CO2/95% air.
• Prepare compound-containing source plate, i.e. titrations in DMSO to be transferred to the assay plate. • Empty the assay plate, and re-add 25 μL assay medium. • Add 75 nL compounds and controls from the source plate to the assay plate (with cells). • Add 25 μL assay medium and incubate for 2 hours. • Add 25 μL stimulation mix in assay medium (recombinant human interleukin 17A and Tumor necrosis factor-alpha) to give a final concentration of 10 ng/mL of both cytokines. • Incubate plates at 37° C., 5% CO2/95% air for 3 days.
• Remove plates from incubation and equilibrate to room temperature for 30 minutes. • Transfer 2 μL supernatant to white proxi 384-well plates for IL-8 detection. • Add 2 μL assay medium • Prepare IL-8 HTRF mix (according to manufactory protocol) and add 2 μL pr well. • Seal and incubate for 3 hours and read fluorescence in a plate reader.
IL-8 concentration in the supernatant is measured using homogeneous time-resolved fluorescence resonance (TR-FRET). The assay is quantified by measuring fluorescence at 665 nm (proportional to IL8 concentration) and 620 nm (control). A ratio 665/620*1000 is calculated as a representation of the amount of IL-8 in the supernatant.

Another assay has as its system Pancreatic CAPAN-1. The assay is described as follows: CellTiter Glo cell viability assay. It is filed as cell-based. The settings on record: Homo sapiens; Capan-1/HTB-79; 11 dilutions 3-0.00001 μM.
The subject of a further assay is Rhabomyosarcoma A-204. The assay can be described thus: CellTiter Glo cell viability assay. Type of assay: cell-based. The settings on record: Homo sapiens. How it is done:
(§1) 1.7*10^3 cells/well were seeded in quadruplicates in 96-well plate after plating. Drugs were added at 5 μM and 2-fold dilutions over 18 concentrations (0.000038146-5 […] range) to generate a dose-response curve. Cell growth was assessed on day 1, 3 and 5 after drug treatments using the CellTiter Glo Luminescence Cell Viability Assay (Promega) according to manufacturer's protocol. Thermo Scientific Varioskan LUX Multimode Microplate instrument was used for plate reading. Data are expressed as mean luminescence (arbitrary units) ±S.D.
(§2) Cell Viability Assays were employed to determine the concentration of Compound 1 (KYN-001) and analogues where the response is reduced by half. For each treatment of cancer cells, 1, 2, 5, 10 and 20 μM solutions of compounds were applied. GraphPad Prism 7 software was used to fit dose response curves. Relative Luminescence Units were plotted against the log values of the doses used and the nonlinear regression model was used for data analysis.
(§3) The protocol for cell proliferation was optimized for Compound 8 (KYN-119) to enable a more accurate assessment of its low IC50 value. In this protocol, 18 dosages (2 fold dilutions ranging from 0.000038146 to 5 μM) were applied to cells seeded in 96-well plates, and Luminescence was measured after 1, 3 and 5 days upon treatments.
For orientation: Cellular ATP, detected with luciferase, serves as a proxy for viable cell number.

The next assay deals with Bladder RT4. The assay can be described thus: CellTiter Glo cell viability assay. Type of assay: cell-based. As to conditions: Homo sapiens. As to the method:
as §1, §2, §3

Another assay deals with Kidney 769-P. The assay is described as follows: CellTiter Glo cell viability assay. It is filed as cell-based. As to conditions: Homo sapiens. How it is done: as §1, §2, §3
In another assay the test system is Kidney ACHN. The assay can be described thus: CellTiter Glo cell viability assay. It is filed as cell-based. As to conditions: Homo sapiens; ACHN/CRL-1611; 11 dilutions 3-0.00001 μM.
For assay [2], the system named is Cancer cells including pancreatic, bladder, kidney, colon, breast, lung, liver and osteosarcomas. The assay can be described thus: CellTiter Glo cell viability assay, panel of cancer cell lines. Type of assay: cell-based, human. The gist of the method:
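Cells (1.7*10^3/well) were seeded in quadruplicate and treated with 2-fold dilutions over 18 concentrations up to 5 μM, or with 1, 2, 5, 10 and 20 μM. Viability was read by CellTiter Glo luminescence on days 1, 3 and 5; half-maximal concentrations came from nonlinear regression of RLU versus log dose.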

A further assay has as its system GBM patient sample BNB04. The assay is described as follows: Ex vivo GBM 3D spheroid drug response (CellTiter-Glo 3D). It is filed as cell-based, human. As to conditions: Homo sapiens, 96 h, 3D spheroids; 4 days post drug treatment. An excerpt:
(§4) This project involves an ex vivo drug response screen for 3 ROKiT Pharma test agents and Temozolomide in 3 previously dissociated and cryopreserved GBM samples.
(§5) • 2.1 Three previously processed GBM patient samples were chosen to be used in this study.

Another assay concerns GBM patient sample BNA99. Described as above. It is filed as cell-based, human. As to conditions: 3D spheroids, 4 days post drug treatment.
Excerpt: as §4, §5

The next assay has as its system GBM patient sample BNB18. The assay is described as above. Type of assay: cell-based, human. As to conditions: 3D spheroids, 4 days post drug treatment.
Excerpt: as §4, §5

The subject of a further assay is Colon SW_480. The assay is described as follows: CellTiter Glo cell viability assay. It is filed as cell-based, human. The settings on record: for IC50: Homo sapiens.
Setting [3] is: inhibition of IL-8 release, IL-17A and TNFα-induced keratinocytes, read-out: Abs EC50: IL-8 (1250).
[4] abbreviates: A204, A-204/HTB-82, 11 dilutions 3-0.00001 μM, read-out: IC50.
Setting [5] is: RT4/HTB-2, 11 dilutions 3-0.00001 μM, read-out: IC50.
The mark [6] stands for this setting: 769-P/CRL-1933, 11 dilutions 3-0.00001 μM, read-out: IC50.
The mark [7] stands for this setting: SW480, 72 h, 3 Days of treatment, 18 2-fold dilutions 5-0.00003 μM, read-out: Average IC50.
Setting [8] is: SW480/CCL-228, 11 dilutions 3-0.00001 μM, read-out: IC50.
Where [9] appears, read: read-out: EC50, inhibition of IL-8 release.

Consider `COc1cc(/C=C/c2cc(O)cc(OC)c2CC=C(C)C)ccc1NC(=O)CN` [Compound 31, (E)-2-amino-N-(4-(5-hydroxy-3-methoxy-2-(3-methylbut-2-en-1-yl)styryl)-2-methoxyphenyl)acetamide], for which the EC50 (as a rule, the concentration giving half of the maximal effect) in assay [1] (setting [3]) came out at 364 nM. Besides, the “Max Eff.: IL-8 (1250)” value in assay [1] is 105%.
For the compound `COc1cc(/C=C/c2cc(O)cc(OC)c2CC=C(C)C)ccc1O` [Compound 1, (E)-3-(4-hydroxy-3-methoxystyryl)-5-methoxy-4-(3-methylbut-2-en-1-yl)phenol], the IC50 (in general, the concentration needed to halve the response being measured) is 2670 nM with Pancreatic CAPAN-1; 199 nM with Rhabomyosarcoma A-204 (setting [4]); 1380 nM in the assay on Bladder RT4 (setting [5]); 363 nM with Kidney 769-P (setting [6]); 241 nM in the assay on Kidney ACHN; 10 to 100 nM in [2] (Homo sapiens, comparative study on 83 cancer cell lines (Table 3), read-out: IC50 values in the range, towards the cell lines listed in the text). In addition, the IC50 in the assay on GBM patient sample BNB04 stood at 10900 nM; in the assay on GBM patient sample BNA99 (Homo sapiens, 96 h), 15000 nM; in the assay on GBM patient sample BNB18 (Homo sapiens, 96 h) it was 1330 nM; with Colon SW_480 (setting [7]), 179 nM; with Colon SW_480 (SW480, 72 h, Day 3 upon drug treatment, 10 dosages 0.0001-20 μM, read-out: IC50), 298 nM; in the assay with Colon SW_480 (setting [8]), 225 nM. Also, the “Effect on cell viability on Day 1” value in [2] (Day 1 upon treatment at dosages <1 μM) is listed as “neither 1 nor 8 affect cell viability”. In addition, the EC50 in [1] (setting [3]) stood at 80 nM. Besides, in [1], the “Max Eff.: IL-8 (1250)” value is listed as 94%.
As for `CCOc1cc(O)cc(/C=C/c2ccc(NC(=O)C(=O)O)c(OC)c2)c1CC=C(C)C` [Compound 35, (E)-2-((4-(3-Ethoxy-5-hydroxy-2-(3-methylbut-2-en-1-yl)styryl)-2-methoxyphenyl)amino)-2-oxoacetic acid], the EC50 in [1] (setting [3]) is 2950 nM. The “Max Eff.: IL-8 (1250)” value in assay [1] was determined as 77%.
On to `CCOc1cc(O)cc(/C=C/c2ccc(O)c(O)c2)c1CC=C(C)C` [Compound 20, (E)-4-(3-Ethoxy-5-hydroxy-2-(3-methylbut-2-en-1-yl)styryl)benzene-1,2-diol], for which the IC50 worked out at 2240 nM with Pancreatic CAPAN-1; 131 nM in the assay on Rhabomyosarcoma A-204 (setting [4]); 2010 nM in the assay on Bladder RT4 (setting [5]); 174 nM in the assay on Kidney 769-P (setting [6]); 83.4 nM with Kidney ACHN; 23700 nM with GBM patient sample BNB04. Also, the IC50 in the assay with GBM patient sample BNA99 (Homo sapiens, 96 h) stood at 19100 nM; in the assay with GBM patient sample BNB18 (Homo sapiens, 96 h) it was 4560 nM; in the assay on Colon SW_480 (setting [8]), 158 nM. For the same compound, in assay [1] (setting [3]), the EC50 is 321 nM. The “Max Eff.: IL-8 (1250)” value in assay [1] was determined as 93%.
With `COc1cc(/C=C/c2cc(O)cc(OC)c2CC=C(C)C)ccc1NC=O` [Compound 27, (E)-N-(4-(5-hydroxy-3-methoxy-2-(3-methylbut-2-en-1-yl)styryl)-2-methoxyphenyl)formamide], the IC50 turned out to be 792 nM in the assay with Pancreatic CAPAN-1; 52.4 nM with Rhabomyosarcoma A-204 (setting [4]); 453 nM in the assay with Bladder RT4 (setting [5]); 110 nM with Kidney 769-P (setting [6]); 26.7 nM in the assay with Kidney ACHN; 4310 nM in the assay with GBM patient sample BNB04. The IC50 stood at 8870 nM in the assay on GBM patient sample BNA99; 8860 nM in the assay with GBM patient sample BNA99 (Homo sapiens, 96 h); 634 nM with GBM patient sample BNB18; 630 nM with GBM patient sample BNB18 (Homo sapiens, 96 h); 89.6 nM with Colon SW_480 (setting [8]). Besides, the EC50 in [1] (setting [3]) and in [1] (setting [9]) was 46 nM each time. For the same compound, in assay [1], the Emax turned out to be 75%. The “Max Eff.: IL-8 (1250)” value in assay [1] is on record as 75%.
On to `CCOc1cc(O)cc(/C=C/c2ccc(NC=O)c(OC)c2)c1CC=C(C)C` [Compound 28, (E)-N-(4-(3-Ethoxy-5-hydroxy-2-(3-methylbut-2-en-1-yl)styryl)-2-methoxyphenyl)formamide], for which the IC50 with Pancreatic CAPAN-1 was 735 nM; with Rhabomyosarcoma A-204 (setting [4]), 25.3 nM; with Bladder RT4 (setting [5]), 463 nM; in the assay with Kidney 769-P (setting [6]) it was 40.1 nM; in the assay with Kidney ACHN it was 18.8 nM; with Colon SW_480 (setting [8]), 30 nM. Also, the “Cancer cell viability inhibition, statement in words” value in [2] (SAR discussion based on IC50 values in Tables 1 to 5, compared with 1 [KYN-001]) was “much enhanced inhibition”. Also, in [1], the “reduction of IL-8 release, in words” value is given as “medium potency reduction of IL-8 release”. In addition, the EC50 in assay [1] (setting [3]) and in assay [1] (setting [9]) was 44 nM throughout. For the same compound, the Emax in [1] was found to be 85%. Further, the “Max Eff.: IL-8 (1250)” value in assay [1] is 85%.
Take `CCOc1cc(O)cc(/C=C/c2ccc(O)c(OC)c2)c1CC=C(C)C` [Compound 8, (E)-3-Ethoxy-5-(4-hydroxy-3-methoxystyryl)-4-(3-methylbut-2-en-1-yl)phenol]: the IC50 in the assay with Pancreatic CAPAN-1 was 2320 nM; in the assay on Rhabomyosarcoma A-204 (A204, 72 h, 3 Days of treatment, 18 2-fold dilutions 5-0.00003 μM, read-out: Average IC50), 30.7 nM; in the assay on Rhabomyosarcoma A-204 (setting [4]), 67.8 nM; in the assay on Bladder RT4 (72 h, 3 Days of treatment, 18 2-fold dilutions 5-0.00003 μM, read-out: Average IC50), 1670 nM; with Bladder RT4 (setting [5]) it was 968 nM; in the assay on Kidney 769-P (769-P, 72 h, 3 Days of treatment, 18 2-fold dilutions 5-0.00003 μM, read-out: Average IC50) it was 33.7 nM. The IC50 in the assay on Kidney 769-P (setting [6]) worked out at 109 nM; with Kidney ACHN, 75.7 nM; in the assay with Colon SW_480 (setting [7]), 17.9 nM; with Colon SW_480 (setting [8]), 109 nM. Besides, the “Average fold (8 [KYN-119] more potent than 1 [KYN-001])” value in assay [2] (83 cancer cell lines, Table 3) amounted to 10. Moreover, the EC50 in [1] (setting [3]) stood at 37 nM. Also, the “Max Eff.: IL-8 (1250)” value in assay [1] came out at 107%. Moreover, the “Fold IC50” value in the assay on Colon SW_480 (IC50 of 1 [KYN-001] vs 8 [KYN-119], 3 Days) stood at 10.
